This is an account of results in DBAASP.

Assay in all cases: ≥ marks a high value that may be exact or a test limit, other limits are often not marked, values filed in µg/mL are converted to µM
Experiment [1] relates to Pseudomonas aeruginosa H1001.
Experiment [2] deals with Escherichia coli ATCC 8739.
For experiment [3], the system named is Klebsiella oxytoca MTCC 2275.
For experiment [4], the system named is Escherichia coli K12 MG1655.
For experiment [5], the system named is Citrobacter koseri MTCC 1657.
Experiment [6] has as its system Citrobacter freundii MTCC 1658.
In experiment [7] the test system is Stenotrophomonas maltophilia MTCC 1890.
In experiment [8] the test system is Staphylococcus aureus MTCC 3160.
For experiment [9], the system named is Shigella flexneri MTCC 1457.
Experiment [10] concerns Salmonella enterica MTCC 9844.
In experiment [11] the test system is Vibrio cholerae MTCC 3904.
Experiment [12] deals with Proteus vulgaris MTCC 1771.
The subject of experiment [13] is Bordetella bronchiseptica MTCC 6837.
The test system of experiment [14] is Acinetobacter baumannii MTCC 9829.
Experiment [15] concerns Staphylococcus haemolyticus MTCC 3383.
Experiment [16] has as its system Corynebacterium glutamicum MTCC 2679.
Experiment [17] concerns Alkalihalobacillus alcalophilus MTCC 860.
Experiment [18] concerns Pluralibacter gergoviae MTCC 3826.
The subject of experiment [19] is Haemophilus influenzae MTCC 621.
Experiment [20] has as its system Shigella boydii MTCC 11947.
Experiment [21] deals with Enterococcus faecalis MTCC 439.
Experiment [22] concerns Klebsiella aerogenes MTCC 111.
In experiment [23] the test system is Salmonella enterica subsp. enterica serovar Typhimurium ATCC 14028.
Experiment [24] relates to Proteus mirabilis MTCC 3158.
For experiment [25], the system named is Pseudomonas aeruginosa MTCC 3542.
Experiment [26] has as its system Alcaligenes faecalis MTCC 1937.
In experiment [27] the test system is Klebsiella pneumoniae MTCC 7407.
Experiment [28] has as its system Stenotrophomonas maltophilia.
Experiment [29] relates to Pseudomonas aeruginosa.
For experiment [30], the system named is Achromobacter xylosoxidans.

SMILES strings stand for the structures. Values after ≈ are worked out from the molar mass of the structure shown.

Consider `CC[C@H](C)[C@H](NC(=O)[C@H](C)NC(=O)[C@H](CC(N)=O)NC(=O)[C@H](CCSC)NC(=O)[C@@H]1CCCN1)C(=O)N[C@@H](CCCCN)C(=O)N[C@@H](CC(C)C)C(=O)N[C@@H](CC(C)C)C(=O)N[C@@H](CS)C(=O)N[C@@H](CCCN=C(N)N)C(=O)N[C@H](C(=O)N[C@@H](Cc1cnc[nH]1)C(=O)N[C@@H](CCCCN)C(=O)N[C@@H](CCCCN)C(=O)N[C@H](C(=O)N[C@@H](C)C(=O)N[C@H](C(=O)N[C@@H](CO)C(=O)N[C@H](C(=O)O)C(C)C)[C@@H](C)CC)[C@@H](C)CC)C(C)C` [PMNAIKLLCRVHKKIAISV], for which the MIC in [1] was 5.86 µM (≈ 12.5 µg/mL); in experiment [2], not below 60 µM.

Consider `CC[C@H](C)[C@H](NC(=O)[C@H](Cc1cnc[nH]1)NC(=O)[C@H](Cc1cnc[nH]1)NC(=O)[C@@H](NC(=O)[C@@H](NC(=O)[C@H](CCCCN)NC(=O)[C@@H](NC(=O)[C@@H](NC(=O)[C@H](CCCCN)NC(=O)[C@H](Cc1cnc[nH]1)NC(=O)[C@H](Cc1ccccc1)NC(=O)[C@H](C)NC(=O)[C@H](CO)NC(=O)[C@H](CC(C)C)NC(=O)[C@@H](N)C(C)C)C(C)C)[C@@H](C)CC)[C@@H](C)CC)[C@@H](C)CC)C(=O)N[C@@H](CO)C(=O)N[C@@H](Cc1cnc[nH]1)C(=O)N[C@@H](Cc1ccccc1)C(=O)O` [VLSAFHKVIKIIHHISHF], for which the MIC is not below 60.2 µM in experiment [3]; 15 µM (≈ 32 µg/mL) in [4]; 7.52 µM (≈ 16 µg/mL) in [5]; not below 60.2 µM in experiment [6]; not below 60.2 µM in experiment [7]; not below 60.2 µM in [8]. For the same compound, the MIC was 3.76 µM (≈ 8 µg/mL) in experiment [9]; 15 µM (≈ 32 µg/mL) in experiment [10]; not below 60.2 µM in experiment [11]; not below 60.2 µM in experiment [12]; 1.88 µM (≈ 4 µg/mL) in experiment [13]; 7.52 µM (≈ 16 µg/mL) in experiment [14]. In addition, the MIC in experiment [15] was 15 µM (≈ 32 µg/mL); in experiment [16], 1.88 µM (≈ 4 µg/mL); in experiment [17], 15 µM (≈ 32 µg/mL); in experiment [18], not below 60.2 µM; in experiment [19], 3.76 µM (≈ 8 µg/mL); in [20], 7.52 µM (≈ 16 µg/mL). In addition, the MIC is not below 60.2 µM in experiment [21]; not below 60.2 µM in [22]; more than 60.2 µM in [23]; not below 60.2 µM in experiment [24]; not below 60.2 µM in experiment [25]; not below 60.2 µM in experiment [26]. The same compound showed an MIC in experiment [27] not below 60.2 µM.

As for `CC[C@H](C)[C@H](NC(=O)[C@H](CCCCN)NC(=O)[C@H](Cc1ccccc1)NC(=O)[C@H](C)NC(=O)[C@H](C)NC(=O)[C@H](CCCCN)NC(=O)[C@@H](NC(=O)[C@H](CC(C)C)NC(=O)CNC(=O)[C@H](CCCCN)NC(=O)[C@H](Cc1c[nH]c2ccccc12)NC(=O)[C@@H](N)Cc1ccccc1)C(C)C)C(=O)N[C@H](C(=O)N[C@@H](Cc1cnc[nH]1)C(=O)N[C@@H](C)C(=O)NCC(=O)N[C@@H](CO)C(=O)O)C(C)C` [FWKGLVKAAFKIVHAGS], the MIC in [3] is not below 34.4 µM; in experiment [4], not below 34.4 µM; in experiment [5], not below 34.4 µM; in experiment [6] it was not below 68.8 µM; in experiment [7] it was not below 68.8 µM; in [8], not below 68.8 µM. Also, the MIC was not below 68.8 µM in [9]; not below 68.8 µM in experiment [10]; not below 68.8 µM in experiment [11]; not below 68.8 µM in experiment [12]; 4.3 µM (≈ 8 µg/mL) in experiment [13]; 8.61 µM (≈ 16 µg/mL) in [14]. Moreover, the MIC in experiment [15] is 8.61 µM (≈ 16 µg/mL); in experiment [16], 1.08 µM (≈ 2 µg/mL); in [17] it was 8.61 µM (≈ 16 µg/mL); in [18], not below 68.8 µM; in experiment [19] it was not below 68.8 µM; in [20], not below 68.8 µM. The MIC is not below 68.8 µM in experiment [21]; not below 68.8 µM in experiment [22]; more than 68.8 µM in experiment [23]; not below 68.8 µM in [24]; not below 68.8 µM in [25]; not below 68.8 µM in experiment [26]. The compound also registered an MIC in experiment [27] not below 68.8 µM.

Take `CC[C@H](C)[C@H](NC(=O)[C@H](CCCCN)NC(=O)[C@H](CCC(N)=O)NC(=O)CNC(=O)[C@@H](NC(=O)[C@H](CCCCN)NC(=O)[C@H](CCCCN)NC(=O)[C@H](CC(C)C)NC(=O)[C@H](CCCCN)NC(=O)[C@H](CCC(=O)O)NC(=O)[C@H](CCCCN)NC(=O)[C@@H](NC(=O)[C@H](CCCCN)NC(=O)[C@H](CC(N)=O)NC(=O)[C@H](CCCN=C(N)N)NC(=O)[C@H](Cc1ccccc1)NC(=O)[C@H](CCCCN)NC(=O)[C@H](CCCN=C(N)N)NC(=O)[C@H](CC(C)C)NC(=O)[C@H](CCCN=C(N)N)NC(=O)[C@H](CCCCN)NC(=O)[C@@H](N)CCCN=C(N)N)[C@@H](C)CC)[C@@H](C)CC)C(=O)O` [RKRLRKFRNKIKEKLKKIGQKI]: the MIC in experiment [28] stood at 4.03 µM (≈ 11.3 µg/mL); in [29], 1.42 µM (≈ 4 µg/mL); in experiment [30], 2.01 µM (≈ 5.66 µg/mL).

`CC(C)C[C@H](NC(=O)[C@H](Cc1ccc(O)cc1)NC(=O)[C@@H]1CCCN1C(=O)[C@@H]1CCCN1C(=O)[C@H](CCCCN)NC(=O)[C@H](CC(=O)O)NC(=O)[C@@H](N)C(C)C)C(=O)N1CCC[C@H]1C(=O)N[C@@H](CCCN=C(N)N)C(=O)N1CCC[C@H]1C(=O)N[C@@H](CCCN=C(N)N)C(=O)N1CCC[C@H]1C(=O)N1CCC[C@H]1C(=O)N[C@@H](CCCN=C(N)N)C(=O)N[C@@H](CCCN=C(N)N)C(=O)N[C@@H](Cc1ccccc1)C(=O)N[C@@H](Cc1ccc(O)cc1)C(=O)N[C@@H](CC(N)=O)C(=O)N[C@@H](CCCN=C(N)N)C(=O)NCC(=O)O` [VDKPPYLPRPRPPRRFYNRG] registered an MIC in [1] of 0.105 µM (≈ 0.26 µg/mL).
